Experimental data as given in patent US11020405B2, “Method for prevention or treatment of diabetic complications” (KANGWON NATIONAL UNIVERSITY UNIVERSITY-INDUSTRY COOPERATION …, priority 2017, dated 2021).

Key:
[1] = system: endothelial monolayer of HRECs; assay: Analysis of cell permeability (FITC-dextran, Transwell); format: cell-based, human; conditions: HREC monolayer, 10 ng/mL VEGF 90 min with 20 μM midazolam, 5 μM BAPTA-AM, 1 mM NAC, 0.5 μM Trolox, 50 μM cystamine or 20 μM MDC; 40 kDa FITC-dextran 60 min (FIG. 7)
Procedure: The HRECs were cultured (e.g. about 5 days) until the cell confluence thereof reached an appropriate level on gelatin-coated 0.4 μm polycarbonate membranes of Transwell Permeable Supports (Costar, Corning, N.Y.), followed by the respective treatments below and culture for 30 min. Here, treatment with 10 ng/mL VEGF was performed for 90 min. Thereafter, the HRECs were treated with 1 mg/mL 40 kDa FITC-dextran (Sigma-Aldrich), incubated for 60 min, after which the amount of FITC-dextran that was diffused into the lower chamber through the endothelial monolayer of HERCs was measured using a microplate spectrofluorometer (Molecular Devices, Sunnyvale, Calif.).

VEGF = assay: VEGF-induced vascular leakage in mouse ear (evans blue dye); format: in vivo, C57BL/6 mice; conditions: 24 hr before evans blue dye, 30 ng VEGF intradermally (FIG. 23)
Procedure: Six-week-old male C57BL/6 mice were administered 5 or 10 mg/kg midazolam by intraperitoneal injection. After 24 hr, mice were intravenously injected with 45 mg/kg evans blue dye. After 30 min circulation, 10 μl VEGF solution (30 ng) was injected intradermally into the dorsal part of ears. Representative images of vascular leakage in ears are shown in additional FIG. 23 (n=2/group).

TGase = assay: Analysis of TGase activity of cells (5-(biotinamido)pentylamine incorporation); format: cell-based, human; conditions: HRECs
Procedure: Purchased from Applied Cell Biology Research Institute (Cell Systems, Kirkland, Wash.), human retinal endothelial cells (HRECs) were cultured in an M19 medium, containing 20% FBS, 3 ng/mL bFGF, 5 U/mL heparin, 100 U/mL penicillin and […], in a 2% gelatin-coated plate.
Before the following Test Examples 2 to 7, the HRECs were cultured for 6 hr in a medium containing 1% FBS and an antibiotic agent, thus preparing HRECs of Test Example 1.
With reference to FIG. 4A, the HRECs of Test Example 1 were treated with 0 to 20 μM midazolam, cultured for 2 hr, treated with 10 ng/mL VEGF, incubated for 2 hr, treated with 1 mM 5-(biotinamido)pentylamine, incubated for 1 hr, fixed with 3.7% formaldehyde, treated with 0.2% triton X-100, treated with a blocking solution containing 138 mM NaCl, 0.1% Tween 20 and 2% BSA dissolved in a 20 mM Tris (pH 7.6) buffer, incubated for 30 min, incubated for 1 hr with FITC-conjugated streptavidin (1:200, v/v), and then measured using confocal microscopy to thus determine the fluorescence intensity of single cells.
With reference to FIG. 4B, the HRECs of Test Example 1 were subjected to the respective treatments below and cultured for 30 min. Here, treatment with 10 ng/mL VEGF was performed for 2 hr. […]

kidneys of diabetic mice = assay: Hyperglycemia-induced renal vascular leakage in diabetic mice (FITC-dextran); format: in vivo, C57BL/6 mice; conditions: 10 mg/kg midazolam intraperitoneal daily for 2 days (FIG. 20)
Procedure: FIGS. 20A and 20B show the preventive effects of midazolam against hyperglycemia-induced renal vascular leakage in diabetic mice. Six-week-old male C57BL/6 mice were administered with streptozotocin (150 mg/kg body weight) to give diabetic mouse models. Two weeks after streptozotocin injection, diabetic mice were administered 10 mg/kg midazolam by intraperitoneal injection daily for 2 days, and vascular leakage was investigated. The body weight of mice were measure in normal (19.9±0.3 g), diabetic (17.7±0.3 g), and midazolam supplemented diabetic mice (17.7±0.3 g). Blood glucose levels were also monitored in normal (123.5±6.5 mg/dL), diabetic (505.0±89.0 mg/dL), and midazolam supplemented diabetic mice (500.3±63.3 mg/dL). The mice were anesthetized with 3% isoflurane, and 1.25 mg of FITC-dextran was injected into the right ventricle of each mouse and allowed to circulate for 5 min. The kidneys were dissected, fixed, and embedded in OCT compound. Cryosections of kidneys were stained with nuclear counterstaining with DAPI. Representative images of vascular leakage in kidneys are shown in additional FIG. 20A. Scale bars, 100 μm. The results of vascular leakage quantitatively analyzed by measuring the fluorescence intensity of FITC-dextran in the kidneys are shown in additional FIG. 20B. (n=4 for normal and diabetic, n=6 for diabetic+Midazolam).

[2] = system: human retinal endothelial cells (HRECs); assay: Identification of receptor of midazolam through ROS concentration analysis; format: cell-based
Procedure: With reference to FIG. 10A, the HRECs of Test Example 1 were subjected to the respective treatments below, cultured for 10 min, treated with 10 μM H2DCFDA, stained for 10 min in a phenol-red-free low-serum medium, and measured using confocal microscopy to thus determine the fluorescence intensity of single cells.
As will be described below, flumazenil was used as a GABAA receptor antagonist and PK11195 was used as a TSOP receptor antagonist.
With reference to FIG. 10B, the HRECs of Test Example 1 were treated with 0 μM, 0.01 μM, 0.1 μM, 1 μM, 10 μM, 20 μM, and 50 μM flumazenil and 0 μM, 0.01 μM, 0.1 μM, 1 μM, 3 μM, 10 μM, and 30 μM PK11195, cultured for 1 hr, treated with 20 μM midazolam, cultured for 30 min, treated with 10 ng/ml VEGF, incubated for 10 min, treated with 10 μM H2DCFDA, stained for 10 min in a phenol-red-free low-serum medium, and then measured using confocal microscopy to thus determine the fluorescence intensity of single cells.

## Cc1ncc2n1-c1ccc(Cl)cc1C(c1ccccc1F)=NC2 [midazolam]
[1]
  FITC-dextran diffused into lower chamber (cell permeability) / adherens junction disruption due to VEGF: prevented the adherens junction disruption due to VEGF and thus FITC-dextran was not diffused
VEGF; 5 mg/kg midazolam intraperitoneal
  VEGF-induced vascular leakage in mouse ear: not at 5 mg/kg
VEGF; 10 mg/kg midazolam intraperitoneal
  VEGF-induced vascular leakage in mouse ear: suppressed
TGase; 0 to 20 μM midazolam 2 hr, then 10 ng/mL VEGF 2 hr (FIG. 4A)
  TGase activity, concentration dependence: TGase activity was decreased with an increase in the concentration of midazolam
TGase; 10 ng/mL VEGF 2 hr with 20 μM midazolam, 5 μM BAPTA-AM, 1 mM NAC, 0.5 μM Trolox, 50 μM cystamine or 20 μM MDC (FIG. 4B)
  TGase activity (VEGF-induced) compared to control: substantially the same effect of inhibiting TGase activity as the TGase inhibitors cystamine and MDC
Kidneys of diabetic mice
  renal vascular leakage (FITC-dextran extravasation): blocked by midazolam administration
[2]; 20 μM midazolam 10 min then 10 ng/ml VEGF, no washing (FIG. 10A)
  ROS concentration (VEGF-induced) compared to control: no significant ROS concentration increase was observed
[2]; 20 μM midazolam 30 min, washing with serum-free medium, then 10 ng/ml VEGF (FIG. 10A)
  ROS concentration (VEGF-induced, after washing): ROS concentration was increased
